Test results from US11279733B2, “Peptide antibiotics” (priority 2017, dated 2022).
Values after ≈ are worked out from the molar mass of the structure shown. Read-outs that look alike come from different tables or passages of the source. Positions of bridges follow the written chain, without caps; N, C: chain ends. Non-standard residues stand in square brackets, D forms with d. Residues, ends and D or L forms follow the SMILES beside them. *: point of attachment. Decanoyl(3R-OH) = CCCCCCC[C@@H](O)CC(=O)*; dBip = N[C@H](Cc1ccc(-c2ccccc2)cc1)C(=O)O; dDab = NCC[C@@H](N)C(=O)O; Dab = NCC[C@H](N)C(=O)O; Dap = NC[C@H](N)C(=O)O

Tests used:
[1] = In vitro nephrotoxicity, GGT release from primary human kidney cells; assay type: cell-based; settings: pH 7.4
Source text: (§1) hPT cells were derived from whole human kidneys procured by the International Institute for the Advancement of Medicine (Edison, N.J., USA). All tissue was scored by a pathologist as normal (i.e., derived from non-cancerous, non-diseased tissue). Cell isolation procedures were based on those originally described by Todd et al. (1996) and modified (Cummings and Lash, 2000; Cummings et al., 2000) with use of sterile conditions (i.e., all instruments and glassware were autoclaved and all buffers were filtered through a 0.2-μm pore-size filter). Renal cortex and outer stripe were cut into slices, washed with sterile PBS, minced, and the pieces were placed in a trypsinization flask filled with 300 ml of sterile, filtered Hanks' buffer, containing 25 mM NaHCO3, 25 mM HEPES, pH 7.4, 0.5 mM EGTA, 0.2% (w/v) bovine serum albumin, 50 μg/ml gentamicin, 1.3 mg/mL collagenase, and 0.59 mg/ml CaCl2), which was filtered prior to use. Whole kidneys were perfused with Wisconsin medium and kept on ice until they arrived at the laboratory, which was usually within 24 h of removal from the donor.
(§2) All buffers were continuously bubbled with 95% O2/5% CO2 and were maintained at 37° C. Minced cortical pieces from whole kidneys were subjected to collagenase digestion for 60 min, after which the supernatant was filtered through a 70-μm mesh filter to remove tissue fragments, centrifuged at 150×g for 7 min, and the pellet resuspended in Dulbecco's Modified Eagle's Medium: Ham's F12 Medium (DMEM/F12; 1/1). Approximately 5 to 7×10^6 cells were obtained per 1 g of human kidney cortical tissue.
(§3) hPT cells were resuspended in 2 mL of DMEM/F12 and diluted to 500 mL with cell culture medium, which was serum-free and hormonally-defined. Composition of this supplemented medium was based on earlier work establishing optimal conditions for primary culture of rat PT cells (Lash et al., 1995). Basal medium was a 1:1 mixture of DMEM/F12. […] Cells were seeded in a volume of 0.5 ml at a density of 50-100 μg protein per cm^2 (0.5-1.0×10^6 cells/ml) on 24-well plates. Cultures were grown at 37° C. in a humidified incubator under an atmosphere of 95% air/5% CO2 at pH 7.4. Cultures were grown to approximately 80%-90% confluence (generally 5-6 days) prior to experiments. Cells were harvested by either scraping the flasks with a Teflon scraper or by brief incubation with Cellstripper (Cellgro, Herndon, Va., USA) (in Ca^2+- and Mg^2+-free Hanks' buffer).
Release of gamm-glutanyltransferase was assessed according to Orlowski, M., Meister, A. 1963. γ-Glutamyl-p-nitroanilide: A new convenient substrate for determination and study of L- and D-γ-glutamyltranspeptidase activities (Biochim. Biophys. Acta 73: 679-681.)
A 2.5 mM substrate Solution was prepared from 67 mg γ-glutamyl-p-nitroanilide+264 mg glycylglycine in 100 mL of 0.05 M Tris, pH 8.2 (50 mM Tris, pH 8.2: 605 mg Tris/HCl per 100 mL).
For the assay in 96-well plates, 6-μL of sample and 0.3 mL substrate solution were added to each well. The absorbance was measured at 410 nm for the appearance of product, p-nitroanilide (molar extinction=8800 M^−1 cm^−1).

[2] = In vitro nephrotoxicity, LDH release from primary human kidney cells; assay type: cell-based; settings: pH 7.4
Source text: as §1, §2, §3

[3] = system: S. aureus ATCC 25923, MSSA; settings: ATCC 25923
How it was run: (§4)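 Mid-log cultures grown in Mueller Hinton broth at 37° C were tested by 2-fold broth microdilution at 5×10^5 CFU/mL final. Compounds were dissolved in water and tested over a final range of 32 to 0.015 μg/mL.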

A. baumannii ATCC 19606 = settings: ATCC 19606
How it was run: as §4

K. pneumoniae ATCC 13883 = settings: ATCC 13883
How it was run: as §4

[4] = system: K. pneumoniae GN_106, PmxR; settings: GN 106, PmxR
How it was run: as §4

P. aeruginosa ATCC 27853 = settings: ATCC 27853
How it was run: as §4

[5] = system: K. pneumoniae ATCC 700603, MDR; settings: ATCC 700603
How it was run: as §4

[6] = system: K. pneumoniae GN_102 PmxR; settings: GN 102 PmxR
How it was run: as §4

[7] = system: P. aeruginosa GN_043, PmxR; settings: polymyxin-resistant; for MIC, P. aeruginosa FADDI-PA070, PmxR: Table 5
How it was run: as §4

[8] = system: P. aeruginosa GN_105, PmxR; settings: GN 105, PmxR
How it was run: as §4

E. coli ATCC 25922 = settings: ATCC 25922
How it was run: as §4

A. baumannii GN_093 PmxR = settings: GN 093 PmxR
How it was run: as §4

[9] = system: K. pneumoniae ATCC BAA-2146, NDM-1 pos; settings: ATCC BAA-2146
How it was run: as §4

in vitro = settings: human
How it was run: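 Compound exposure lasted 24 h, following 24 h attachment of 4000 cells/well at 37° C under 5% CO2.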

| Compound | CC50 [1] [µg/mL] | CC50 [2] [µg/mL] | MIC, A. baumannii ATCC 19606 (A. baumannii ATCC 19606) [µg/mL] | MIC, K. pneumoniae ATCC 13883 (K. pneumoniae ATCC 13883) [µg/mL] | MIC K. pneumoniae GN_106, PmxR [4] [µg/mL] | MIC, P. aeruginosa ATCC 27853 (P. aeruginosa ATCC 27853) [µg/mL] | MIC, K. pneumoniae ATCC 700603, MDR [5] [µg/mL] | MIC K. pneumoniae GN_102 PmxR [6] [µg/mL] | MIC P. aeruginosa GN_105, PmxR [8] [µg/mL] | MIC, E. coli ATCC 25922 (E. coli ATCC 25922) [µg/mL] | MIC A. baumannii GN_093 PmxR (A. baumannii GN_093 PmxR) [µg/mL] | MIC, K. pneumoniae ATCC BAA-2146, NDM-1 pos [9] [µg/mL] | MIC, S. Aureus ATCC 25923, MSSA [3] [µg/mL] | MIC, K. pneumoniae Cl 138-16347-20362, PmxR [4] [µg/mL] | MIC, K. pneumoniae Cl Koprana 10065 0661:1, PmxR [6] [µg/mL] | MIC, P. aeruginosa FADDI-PA070, PmxR [7] [µg/mL] | MIC, P. aeruginosa PA9704, PmxR [8] [µg/mL] | MIC, A. baumannii Cl Ptyela 10073 4512:2, PmxR (A. baumannii GN_093 PmxR) [µg/mL] | other results |
| --- | --- | --- | --- | --- | --- | --- | --- | --- | --- | --- | --- | --- | --- | --- | --- | --- | --- | --- | --- |
| CCCCCCC[C@@H](O)CC(=O)N[C@@H](CCN)C(=O)N[C@H]1CCNC(=O)[C@H](CC(C)C)NC(=O)[C@H](CCN)NC(=O)[C@H](CCN)NC(=O)[C@H](CC(C)C)NC(=O)[C@@H](Cc2ccccc2)NC(=O)[C@H](CCN)NC1=O [compound 8638, 3(R)OH-nC9CO-L-Dab-cyc[L-Dab-L-DAB-D-Phe-L-Leu-L-Dab-L-Dab-L-Leu]] ({Decanoyl(3R-OH)}-[Dab][Dab][Dab][dF]L[Dab][Dab]L; lactam 2-C) | > 128 | > 128 | 32 (≈ 30.6 µM) | 4 (≈ 3.83 µM) | 4 (≈ 3.83 µM) | 1 (≈ 0.958 µM) | 8 (≈ 7.66 µM) | 4 (≈ 3.83 µM) | 2 (≈ 1.92 µM) | 2 (≈ 1.92 µM) | 32 (≈ 30.6 µM) | 8 (≈ 7.66 µM) |  |  |  |  |  |  | MIC, S. aureus ATCC 25923, MSSA [3]: 16 µg/mL (≈ 15.3 µM); MIC P. aeruginosa GN_043, PmxR ([7]; Table 6): 8 µg/mL (≈ 7.66 µM) |
| CCCCCCC[C@@H](O)CC(=O)N[C@H](CCN)C(=O)N[C@H]1CCNC(=O)[C@H](CC(C)C)NC(=O)[C@H](CCN)NC(=O)[C@H](CCCCN)NC(=O)[C@H](CC(C)C)NC(=O)[C@@H](Cc2ccccc2)NC(=O)[C@H](CCN)NC1=O [compound 992, 3(R)OH-nC9CO-D-Dab-cyc[L-Dab-L-Dab-D-Phe-L-Leu-L-Lys-L-Dab-L-Leu]] ({Decanoyl(3R-OH)}-[dDab][Dab][Dab][dF]LK[Dab]L; lactam 2-C) | > 128 | 114 (≈ 106 µM) | 2 (≈ 1.86 µM) | 2 (≈ 1.86 µM) |  | 2 (≈ 1.86 µM) | 2 (≈ 1.86 µM) |  |  | 2 (≈ 1.86 µM) |  | 2 (≈ 1.86 µM) | 16 (≈ 14.9 µM) | 4 (≈ 3.73 µM) | 4 (≈ 3.73 µM) | 2 (≈ 1.86 µM) | 4 (≈ 3.73 µM) | 8 (≈ 7.46 µM) |  |
| CCCCCCC[C@@H](O)CC(=O)N[C@H](CCN)C(=O)N[C@H]1CCNC(=O)[C@H](CC(C)C)NC(=O)[C@H](CCN)NC(=O)[C@H](CCN)NC(=O)[C@H](CC(C)C)NC(=O)[C@@H](Cc2ccccc2)NC(=O)[C@H](CCN)NC1=O [Octapeptin C4, octapeptin C4, reference compound] ({Decanoyl(3R-OH)}-[dDab][Dab][Dab][dF]L[Dab][Dab]L; lactam 2-C) | > 128 | 62 (≈ 59.4 µM) |  |  |  |  |  |  |  |  |  |  |  |  |  |  |  |  |  |
| CCCCCCC[C@@H](O)CC(=O)N[C@H](CCN)C(=O)N[C@H]1CCNC(=O)[C@H](CC(C)C)NC(=O)[C@H](CCN)NC(=O)[C@H](CN)NC(=O)[C@H](CC(C)C)NC(=O)[C@@H](Cc2ccccc2)NC(=O)[C@H](CCN)NC1=O [compound 990, 3(R)OH-nC9CO-D-Dab-cyc[L-Dab-L-Dab-D-Phe-L-Leu-L-Dap-L-Dab-L-Leu]] ({Decanoyl(3R-OH)}-[dDab][Dab][Dab][dF]L[Dap][Dab]L; lactam 2-C) | > 128 | 87 (≈ 84.4 µM) | 8 (≈ 7.76 µM) | 4 (≈ 3.88 µM) |  | 2 (≈ 1.94 µM) | 4 (≈ 3.88 µM) |  |  | 4 (≈ 3.88 µM) |  | 4 (≈ 3.88 µM) | 32 (≈ 31.1 µM) | 4 (≈ 3.88 µM) | 4 (≈ 3.88 µM) | 2 (≈ 1.94 µM) | 4 (≈ 3.88 µM) | 16 (≈ 15.5 µM) | CC50 at 24 h (in vitro): > 300 µM |
| CCCCCCC[C@@H](O)CC(=O)N[C@H](CCN)C(=O)N[C@H]1CCNC(=O)[C@H](CC(C)C)NC(=O)[C@H](CCN)NC(=O)[C@H](CCNC(=O)[C@@H](N)CCCNC(=N)N)NC(=O)[C@H](CC(C)C)NC(=O)[C@@H](Cc2ccccc2)NC(=O)[C@H](CCN)NC1=O [compound 6654, 3(R)OH-nC9CO-D-Dab-cyc[L-Dab-L-Dab-D-Phe-L-Leu-L-Dab(L-Arg)-L-Dab-L-Leu]] ({Decanoyl(3R-OH)}-[dDab][Dab][Dab][dF]L[Dab](Arg)[Dab]L; lactam 2-C) | > 128 | > 128 | 8 (≈ 6.66 µM) | 4 (≈ 3.33 µM) |  | 4 (≈ 3.33 µM) | 4 (≈ 3.33 µM) |  |  | 4 (≈ 3.33 µM) |  | 8 (≈ 6.66 µM) | 16 (≈ 13.3 µM) | 16 (≈ 13.3 µM) | 8 (≈ 6.66 µM) | 2 (≈ 1.67 µM) | 2 (≈ 1.67 µM) | 8 (≈ 6.66 µM) |  |
| CCCCCCC[C@@H](O)CC(=O)N[C@H](CCN)C(=O)N[C@H]1CCNC(=O)[C@H](CC(C)C)NC(=O)[C@H](CN)NC(=O)[C@H](CCN)NC(=O)[C@H](CC(C)C)NC(=O)[C@@H](Cc2ccc(-c3ccccc3)cc2)NC(=O)[C@H](CCN)NC1=O [compound 5383, 3(R)OH-nC9CO-D-Dab-cyc[L-Dab-L-Dab-D-Bip-L-Leu-L-Dab-L-Dap-L-Leu]] ({Decanoyl(3R-OH)}-[dDab][Dab][Dab][dBip]L[Dab][Dap]L; lactam 2-C) | > 128 | > 128 |  |  | 8 (≈ 7.23 µM) |  |  | 8 (≈ 7.23 µM) | 2 (≈ 1.81 µM) |  | 4 (≈ 3.62 µM) |  |  |  |  |  |  |  | MIC S. aureus ATCC 25923, MSSA [3]: 2 µg/mL (≈ 1.81 µM); MIC A. baumannii ATCC 19606 (A. baumannii ATCC 19606): 4 µg/mL (≈ 3.62 µM); MIC K. pneumoniae ATCC 13883 (K. pneumoniae ATCC 13883): 4 µg/mL (≈ 3.62 µM); MIC P. aeruginosa ATCC 27853 (P. aeruginosa ATCC 27853): 2 µg/mL (≈ 1.81 µM); MIC K. pneumoniae ATCC 700603, MDR [5]: 4 µg/mL (≈ 3.62 µM); MIC P. aeruginosa GN_043, PmxR [7]: 2 µg/mL (≈ 1.81 µM); MIC E. coli ATCC 25922 (E. coli ATCC 25922): 4 µg/mL (≈ 3.62 µM); MIC K. pneumoniae ATCC BAA-2146, NDM-1 pos [9]: 4 µg/mL (≈ 3.62 µM) |
